Reference: article PMC3448615 (PLoS ONE, 2012)

Target: T1, Ox-R2 (orexin R2 receptor) (Homo sapiens, UniProt O43614)
T1 construct: gene HCRTR2
T1 sequence (O43614 1-444): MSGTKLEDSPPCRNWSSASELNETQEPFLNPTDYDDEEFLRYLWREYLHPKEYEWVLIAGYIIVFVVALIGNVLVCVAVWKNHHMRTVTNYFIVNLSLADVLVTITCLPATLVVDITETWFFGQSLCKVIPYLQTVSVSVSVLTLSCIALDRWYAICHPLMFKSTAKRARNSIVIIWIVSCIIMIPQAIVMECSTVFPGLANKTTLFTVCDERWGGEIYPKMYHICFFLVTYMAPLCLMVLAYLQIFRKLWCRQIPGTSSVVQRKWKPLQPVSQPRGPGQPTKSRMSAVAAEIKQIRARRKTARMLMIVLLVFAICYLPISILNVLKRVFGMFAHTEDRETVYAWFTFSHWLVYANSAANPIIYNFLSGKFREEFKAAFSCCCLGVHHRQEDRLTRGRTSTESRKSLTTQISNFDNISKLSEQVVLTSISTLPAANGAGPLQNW
Experiment: FLUO-3 calcium mobilization in HEK-293 cells, inhibition of […] orexin-B response
Format: cell-based

Q: With `CNC(=O)[C@@H](c1ccccc1)N1CCc2cc(OC)c(OC)cc2[C@@H]1CCc1ccc(C(F)(F)F)cc1` [almorexant] as the compound, how does the IC50 read?
A: 332 ± 13 nM
